Measured values reported in ChEMBL document CHEMBL4334493, “14- and 15-membered lactone macrolides and their analogues and hybrids: structure, molecular mechanism of action and biological activity” (Eur J Med Chem, 2019).
Converted amounts (≈) assume the structure as drawn. Each block holds one compound with its values, some of them ahead of it.

Columns and labels:
Format in all cases: functional
[1] = test system: Streptococcus pneumoniae; assay: Antibacterial activity against Streptococcus pneumoniae ATCC 49619
[2] = test system: Escherichia coli; assay: Antibacterial activity against Escherichia coli DK pKK 3535
[3] = test system: Escherichia coli; assay: Antibacterial activity against Escherichia coli DK A2058G
[4] = test system: Streptococcus pneumoniae; assay: Antibacterial activity against Streptococcus pneumoniae 655 mefA
[5] = test system: Staphylococcus aureus; assay: Antibacterial activity against Staphylococcus aureus ATCC 29213 by broth microdilution method
[6] = test system: Staphylococcus aureus; assay: Antibacterial activity against Staphylococcus aureus 11B117 by broth microdilution method
[7] = test system: Staphylococcus epidermidis; assay: Antibacterial activity against Staphylococcus epidermidis 11X315 by broth microdilution method
[8] = test system: Staphylococcus epidermidis; assay: Antibacterial activity against Staphylococcus epidermidis 11C176 by broth microdilution method
[9] = test system: Streptococcus pneumoniae; assay: Antibacterial activity against Streptococcus pneumoniae ATCC 49619 by broth microdilution method
[10] = test system: Streptococcus pneumoniae; assay: Antibacterial activity against Streptococcus pneumoniae 11J011 by broth microdilution method
[11] = test system: Haemophilus influenzae; assay: Antibacterial activity against Haemophilus influenzae ATCC 49247 by broth microdilution method
[12] = test system: Haemophilus influenzae; assay: Antibacterial activity against Haemophilus influenzae 11Q373 by broth microdilution method
[13] = test system: Moraxella catarrhalis; assay: Antibacterial activity against Moraxella catarrhalis by broth microdilution method
[14] = test system: Haemophilus influenzae; assay: Antibacterial activity against Haemophilus influenzae 33929
[15] = test system: Haemophilus influenzae; assay: Antibacterial activity against Haemophilus influenzae 49247
[16] = test system: Streptococcus pneumoniae; assay: Antibacterial activity against Streptococcus pneumoniae B1
[17] = test system: Streptococcus pneumoniae; assay: Antibacterial activity against Streptococcus pneumoniae A22072
[18] = test system: Streptococcus pneumoniae; assay: Antibacterial activity against Streptococcus pneumoniae AB11
[19] = test system: Streptococcus pyogenes; assay: Antibacterial activity against Streptococcus pyogenes R2
[20] = test system: Staphylococcus aureus; assay: Antibacterial activity against Staphylococcus aureus ATCC 25923
[21] = test system: Staphylococcus aureus; assay: Antibacterial activity against Staphylococcus aureus
[22] = test system: Streptococcus pyogenes; assay: Antibacterial activity against Streptococcus pyogenes S2
[23] = test system: Staphylococcus aureus; assay: Antibacterial activity against Staphylococcus aureus BAA-977 expressing iermA
[24] = test system: Staphylococcus aureus; assay: Antibacterial activity against Staphylococcus aureus ATCC 29213
[25] = test system: Staphylococcus aureus; assay: Antibacterial activity against methicillin resistant Staphylococcus aureus MP513 expressing cErmA
[26] = test system: Staphylococcus aureus; assay: Antibacterial activity against methicillin resistant Staphylococcus aureus NRS384 expressing MsrA
[27] = test system: Streptococcus pneumoniae; assay: Antibacterial activity against Streptococcus pneumoniae UNT-042 expressing ErmB/MefA
[28] = test system: Streptococcus pyogenes; assay: Antibacterial activity against Streptococcus pyogenes ATCC 19615
[29] = test system: Enterococcus faecalis; assay: Antibacterial activity against Enterococcus faecalis ATCC 29212
[30] = test system: Enterococcus faecalis; assay: Antibacterial activity against Enterococcus faecalis UN-047 VRE expressing ErmS
[31] = test system: Haemophilus influenzae; assay: Antibacterial activity against Haemophilus influenzae ATCC 49247
[32] = test system: Acinetobacter baumannii; assay: Antibacterial activity against Acinetobacter baumannii ATCC 19606; settings: ATCC 19606 = CIP 70.34 = JCM 6841
[33] = test system: Klebsiella pneumoniae; assay: Antibacterial activity against Klebsiella pneumoniae ATCC 10031
[34] = test system: Escherichia coli; assay: Antibacterial activity against Escherichia coli ATCC 25922
[35] = test system: Pseudomonas aeruginosa; assay: Antibacterial activity against Pseudomonas aeruginosa ATCC 27853

SMILES: CC[C@H]1OC(=O)[C@@](C)(F)C(=O)[C@H](C)[C@@H](O[C@@H]2O[C@H](C)C[C@H](N(C)C)[C@H]2O)[C@](C)(OC)C[C@@H](C)C(=O)[C@H](C)[C@H]2N(CCCCn3cc(-c4cccs4)nn3)C(=O)O[C@]12C
MIC [1]: 1 µg/mL (≈ 1.2 µM)
MIC [2]: 1 µg/mL (≈ 1.2 µM)
MIC [3]: 0.004 µg/mL (≈ 0.00478 µM)
MIC [4]: 0.5 µg/mL (≈ 0.598 µM)

MIC50 [5]: 0.25 µg/mL (≈ 0.282 µM)
MIC50 [6]: > 64 µg/mL
MIC50 [7]: 0.25 µg/mL (≈ 0.282 µM)
MIC50 [8]: 0.25 µg/mL (≈ 0.282 µM)
MIC50 [9]: 0.031 µg/mL (≈ 0.0349 µM)
MIC50 [10]: 2 µg/mL (≈ 2.25 µM)
MIC50 [11]: 2 µg/mL (≈ 2.25 µM)
MIC50 [12]: 2 µg/mL (≈ 2.25 µM)
MIC50 [13]: 0.25 µg/mL (≈ 0.282 µM)
SMILES: CC[C@H]1OC(=O)[C@H](C)C(=O)[C@H](C)[C@@H](O[C@@H]2O[C@H](C)C[C@H](N(C)C)[C@H]2O)[C@](C)(OC)C[C@@H](C)C(=O)[C@H](C)[C@H]2N(CCCN(Cc3ccccc3)c3cnc4ccccc4c3)C(=O)O[C@]12C

MIC [14]: 2 µg/mL (≈ 2.4 µM)
MIC [15]: 1 µg/mL (≈ 1.2 µM)
SMILES: CC[C@H]1OC(=O)[C@H](C)C(=O)[C@H](C)[C@@H](O[C@@H]2O[C@H](C)C[C@H](N(C)C)[C@H]2O)[C@@]2(C)C[C@@H](C)C(=O)[C@H](C)[C@@H](OC/C(=N\OCc3ccc(-c4nc(N)cs4)cn3)CO2)[C@]1(C)O

MIC50 [5]: 2 µg/mL (≈ 2.1 µM)
MIC50 [6]: > 64 µg/mL
MIC50 [7]: 1 µg/mL (≈ 1.05 µM)
MIC50 [8]: 1 µg/mL (≈ 1.05 µM)
MIC50 [9]: 0.25 µg/mL (≈ 0.263 µM)
MIC50 [10]: 2 µg/mL (≈ 2.1 µM)
MIC50 [11]: 32 µg/mL (≈ 33.6 µM)
MIC50 [12]: 16 µg/mL (≈ 16.8 µM)
MIC50 [13]: 2 µg/mL (≈ 2.1 µM)
SMILES: CC[C@H]1OC(=O)[C@H](C)C(=O)[C@H](C)[C@@H](O[C@@H]2O[C@H](C)C[C@H](N(C)C)[C@H]2O)[C@](C)(OC)C[C@@H](C)C(=O)[C@H](C)[C@H]2N(CCCN(c3cnc4ccccc4c3)S(=O)(=O)c3ccc(C)cc3)C(=O)O[C@]12C

MIC [1]: 0.03 µg/mL (≈ 0.0324 µM)
MIC [16]: 16 µg/mL (≈ 17.3 µM)
MIC [17]: 4 µg/mL (≈ 4.33 µM)
MIC [18]: 16 µg/mL (≈ 17.3 µM)
MIC [19]: 64 µg/mL (≈ 69.2 µM)
MIC [20]: 8 µg/mL (≈ 8.65 µM)
MIC [21]: 32 µg/mL (≈ 34.6 µM)
MIC [22]: 1 µg/mL (≈ 1.08 µM)
SMILES: CC[C@H]1OC(=O)[C@H](C)[C@@H](O[C@H]2C[C@@](C)(OC)[C@@H](OC(=O)NCc3cccc(Cl)c3)[C@H](C)O2)[C@H](C)[C@@H](OC2O[C@H](C)C[C@H](N(C)C)[C@H]2O)[C@]2(C)C[C@@H](C)/C(=N\[C@H](C)[C@H]3OC(=O)O[C@@]31C)O2 (stereo partly specified)

SMILES: CC[C@H]1OC(=O)[C@H](C)C(=O)[C@H](C)[C@@H](O[C@@H]2O[C@H](C)C[C@H](N(C)C)[C@H]2O)[C@](C)(OC)C[C@@H](C)CN[C@H](C)[C@H]2N(CCCCn3cc(-c4cccc(N)c4)nn3)C(=O)O[C@]12C
MIC [23]: 0.5 µg/mL (≈ 0.604 µM)
MIC [1]: ≤ 0.03 µg/mL
MIC [24]: 0.5 µg/mL (≈ 0.604 µM)
MIC [25]: > 64 µg/mL
MIC [26]: 1 µg/mL (≈ 1.21 µM)
MIC [27]: 2 µg/mL (≈ 2.42 µM)
MIC [28]: ≤ 0.03 µg/mL
MIC [29]: 0.125 µg/mL (≈ 0.151 µM)
MIC [30]: > 64 µg/mL
MIC [31]: 2 µg/mL (≈ 2.42 µM)
MIC [32]: 4 µg/mL (≈ 4.83 µM)
MIC [33]: 2 µg/mL (≈ 2.42 µM)
MIC [34]: 4 µg/mL (≈ 4.83 µM)
MIC [35]: 64 µg/mL (≈ 77.3 µM)
